Legend:
[1] = system: 22RV1 human prostatic tumor; test: Subcutaneous tumor volume in mice; type: in vivo; conditions: twice a week
Experimental: Tumors are obtained by subcutaneous injection of tumor cells into the flank of Nude mice. Only animals on which tumor uptake is found are included in the study and randomized to receive treatment or control treatment.
When indicated, the continuous administration of siRNA is carried out by implantation of an Alzet osmotic pump subcutaneously on the back of the mice, on the opposite side to the tumor when the mice wear one. The concentration of siRNA in the pump is adjusted to deliver the indicated amount in mg/kg/day taking into account the pump flow rate indicated by the manufacturer.
The subcutaneous tumors volume is estimated by measuring with a calliper the largest (D), the smallest (d) diameter of the tumors and their height (h). The volume is calculated by the formula V=D×d×h×Pi/6.

53BP1 = test: Indirect immunofluorescence of 53BP1, bleomycin-treated transfected cells; type: cell-based, human; conditions: C4-2 cells transfected with Cont siRNA, 6 hours with 10 μl of bleomycin
Experimental: (§1) FIG. 8: Immuno detection of γH2AX (first column) and 53BP1 (second column) in C4-2 cells treated for 6 h with bleomycin ([…]) or the vehicle added 72 h after transfection of cells by a control siRNA (Cont), siAR7 siRNA, or siARH2AX-1.
(§2) All the cells used in the following examples are human cells and express H2AX.
(§3) The cells are cultured in DMEM or RPMI supplemented with 10% fetal calf serum, or as recommended by the ATCC. When indicated, they are transfected with siRNA using lipofectamine (Life Technologies), following the supplier's protocol. The number of living cells after the indicated treatments was quantified by measuring their metabolic activity by the WST1 test according to the supplier's indications (Roche).
(§4) The effect of siRNA transfection and/or treatments by different chemotherapeutic agents on gene expression was measured: • by RT-qPCR quantification of mRNAs extracted by a conventional phenol-chloroform method (Trizol). The amount of RNA was normalized by measuring the cyclophilin A-encoding mRNA which is not regulated by AR (delta delta CT method). • by Western blotting on protein extracts. The antibodies used are: AR: Santacruz, N-20 sc-816; H2AX: Merck Millipore ref 07-627; Tubulin: Sigma T6199; Actin: Merck Millipore MAB 1501; γH2AX: Merck Millipore 05-636. […] The antibodies used are the following: γH2AX: Merck Millipore 05-636; 53BP1: Novus, NB 100-304.
(§5) In the experiment shown in FIG. 8, C4-2 cells were transfected with a control or siARH2AX-1 siRNA. 72 hours after transfection, the cells were then treated for 6 hours with […] of bleomycin or the corresponding vehicle.

γH2AX = test: Indirect immunofluorescence of γH2AX, bleomycin-treated transfected cells; type: cell-based, human
Experimental: as §1, §2, §3, §4, §5

AR-encoding mRNA = test: RT-qPCR of AR-encoding mRNA after siRNA transfection; type: cell-based, human; conditions: for AR mRNA expression: both lines
Experimental: as §2, §3, §4

MDA MB231 cells = test: WST1 cell viability test; type: cell-based, human; conditions: for cell viability, siRNA combined with etoposide: 40 μl of etoposide added 24 hours after transfection, WST1 48 h later
Experimental: as §2, §3

C4-2 cells = test: WST1 cell viability test; type: cell-based, human
Experimental: as §2, §3

H2AX-encoding mRNA = test: RT-qPCR of H2AX-encoding mRNA after siRNA transfection; type: cell-based, human; conditions: for H2AX mRNA expression: both lines
Experimental: as §2, §3, §4

PSA-encoding mRNA = test: RT-qPCR of PSA-encoding mRNA after siRNA transfection; type: cell-based, human; conditions: LNCaP or C4-2 cells, both lines, 72 hours after transfection
Experimental: as §2, §3, §4
In the experiment shown in FIG. 4, the LNCaP or C4-2 tumor cells were transfected with the following siRNAs: Cont, siAR7 or siARH2AX-1.

LNCaP cells = test: WST1 cell viability test; type: cell-based, human; conditions: 72 hr after transfection
Experimental: as §2, §3

AR = test: Western blot of AR after siRNA transfection; type: cell-based, human; conditions: C4-2 cells, 72 h after transfection
Experimental: as §2, §3, §4

22RV1 cells = test: WST1 cell viability test; type: cell-based, human; conditions: 72 hr after transfection
Experimental: as §2, §3

WM266-4 cells = test: WST1 cell viability test; type: cell-based, human; conditions: for cell viability, siRNA combined with etoposide: 40 μl of etoposide added 24 hours after transfection, WST1 48 h later
Experimental: as §2, §3

H2AX = test: Western blot of H2AX after siRNA transfection; type: cell-based, human; conditions: C4-2 cells, 72 h after transfection
Experimental: as §2, §3, §4

MDA MB-453 cells = test: WST1 cell viability test; type: cell-based, human; conditions: 72 hr after transfection
Experimental: as §2, §3

U87 cells = test: WST1 cell viability test; type: cell-based, human; conditions: 72 hr after transfection
Experimental: as §2, §3

[2] = C4-2 cells, 48 hours after transfection, relative to control siRNA
[3] = LNCaP or C4-2 cells, 72 hours after transfection
[4] = LNCaP or MDA MB-453 cells, 72 h after transfection

COc1cc([C@@H]2c3cc4c(cc3[C@@H](O[C@@H]3O[C@@H]5CO[C@@H](C)O[C@H]5[C@H](O)[C@H]3O)[C@H]3COC(=O)[C@H]23)OCO4)cc(OC)c1O [etoposide]
tumor development ([1]; etoposide 5 mg/kg intraperitoneal): only slightly inhibits tumor development
tumor development ([1]; etoposide 15 mg/kg intraperitoneal): produces an inhibition

bleomycin
53BP1 labeling (53BP1): becomes punctiforme
expression of γH2AX (γH2AX; C4-2 cells transfected with Cont siRNA, 6 hours with 10 μl of bleomycin): strongly increases

siAR2: siRNA inhibiting AR described in PCT/FR2002/003843, SEQ ID NO 9 and SEQ ID NO 10 (chain 1 GACUCAGCUGCCCCAUCCACGNN; chain 2 CGUGGAUGGGGCAGCUGAGUCNN; chemistry not fully specified)
AR expression (mRNA) (AR-encoding mRNA; [2]): inhibit AR expression in a similar manner
cell viability (MDA MB231 cells; 90 hours after transfection): only marginally
cell viability (C4-2 cells; 90 hours after transfection): only marginally
cell viability, siRNA combined with bleomycin (C4-2 cells; bleomycin (10 μM) added 48 hours after transfection, read 48 hours later, versus chemotherapeutic agent alone): does not produce a significantly greater viability-inhibiting effect
cell viability, siRNA combined with etoposide (C4-2 cells; etoposide (10 μM) added 48 hours after transfection, read 48 hours later, versus chemotherapeutic agent alone): does not produce a significantly greater viability-inhibiting effect
H2AX expression (mRNA) (H2AX-encoding mRNA; [2]): considerably less effective at inhibiting the expression of H2AX

siAR7: siRNA hybridizing with a sequence of the 7th exon of AR, not H2AX; SEQ ID NO 13 and 14 (chain 1 AAUGAUACGAUCGAGUUCCNN; chain 2 GGAACUCGAUCGUAUCAUUNN; chemistry not fully specified)
PSA mRNA expression (PSA-encoding mRNA): inhibit the expression of AR and PSA
AR mRNA expression (AR-encoding mRNA; [3]): inhibit the expression of AR and PSA
cell viability / proliferation (C4-2 cells; 72 hr after transfection): inhibit the proliferation
cell viability / proliferation (LNCaP cells): inhibit the proliferation
γH2AX labeling after bleomycin (γH2AX; siRNA-transfected C4-2 cells, 72 hours after transfection, bleomycin 6 hours): increase in γH2AX labeling
H2AX mRNA expression (H2AX-encoding mRNA; [3]): only siARH2AX-1 also inhibits the expression of H2AX

siARh: siRNA hybridizing with a sequence of the first exon of AR, not H2AX; SEQ ID NO 11 and 12 (chain 1 UCCCCAAGCCCAUCGUAGANN; chain 2 UCUACGAUGGGCUUGGGGANN; chemistry not fully specified)
AR protein expression (AR): inhibits AR
AR mRNA expression (AR-encoding mRNA; [4]): inhibits AR
cell viability / proliferation (22RV1 cells): inhibit the proliferation
cell viability, siRNA combined with etoposide (MDA MB231 cells): no amplification of the effects of etoposide
cell viability, siRNA combined with etoposide (WM266-4 cells): no amplification of the effects of etoposide

siH2AX: siRNA hybridizing with H2AX mRNA but not with that of AR; SEQ ID NO 15 and 16 (chain 1 CUGGAAUUCUGCAGCUAACNN; chain 2 GUUAGCUGCAGAAUUCCAGNN; chemistry not fully specified)
H2AX protein expression (H2AX): inhibits H2AX
cell viability / proliferation (22RV1 cells): has little effect on cell proliferation
cell viability, siRNA combined with etoposide (MDA MB231 cells): no amplification of the effects of etoposide
cell viability / proliferation (MDA MB231 cells; 72 hr after transfection): has little effect on cell proliferation
cell viability / proliferation (MDA MB-453 cells): has little effect on cell proliferation
cell viability / proliferation (U87 cells): has little effect on cell proliferation
cell viability, siRNA combined with etoposide (WM266-4 cells): no amplification of the effects of etoposide
cell viability / proliferation (WM266-4 cells; 72 hr after transfection): has little effect on cell proliferation
H2AX mRNA expression (H2AX-encoding mRNA; [4]): inhibits H2AX

— patent US20210292755A1, “NOVEL DOUBLE-STRANDED OLIGONUCLEOTIDES FOR THE TREATMENT OF CANCER” (SELEXEL, priority 2016, published 2021)
